Source: ChEMBL document CHEMBL4680316, “JNK selective inhibitor, IQ-1S, protects the mice against lipopolysaccharides-induced sepsis” (2021)
Calls of active or inactive are those of the source.

Legend:
Mus musculus [1] = assay: Antiinflammatory activity in wild type C57BL/6 mouse model of LPS and D-galactosamine-induced sepsis assessed as survival of organism at 50 to 200 ug, iv administered 2 hrs before LPS and D-galactosamine administration and observed for 20 hrs; format: functional, organism-based; settings: dose 50-200 µg, time 22.0 hrs
Mus musculus [2] = assay: Antiinflammatory activity in C57BL/6 mouse model of LPS-induced sepsis assessed as CD4 cells in spleen at 200 ug, iv administered 2 hrs after LPS administration and measured after 10 hrs of post LPS administration by flow cytometry analysis (reference value: 23.8 %); format: functional; settings: dose 200 µg; time 8 hrs
Mus musculus [3] = assay: Antiinflammatory activity in C57BL/6 mouse model of LPS-induced sepsis assessed as CD8+ cells in spleen at 200 ug, iv administered 2 hrs after LPS administration and measured after 10 hrs of post LPS administration by flow cytometry analysis (reference value: 13 %); format: functional; settings: dose 200 µg; time 8 hrs
Mus musculus [4] = assay: Antiinflammatory activity in C57BL/6 mouse model of LPS-induced sepsis assessed as neutrophils in spleen at 200 ug, iv administered 2 hrs after LPS administration and measured after 10 hrs of post LPS administration by flow cytometry analysis (reference value: 24.8 %); format: functional; settings: dose 200 µg; time 8 hrs
Mus musculus [5] = assay: Antiinflammatory activity in C57BL/6 mouse model of LPS-induced sepsis assessed as macrophages in spleen at 200 ug, iv administered 2 hrs after LPS administration and measured after 10 hrs of post LPS administration by flow cytometry analysis (reference value: 9.69 %); format: functional; settings: dose 200 µg; time 8 hrs
Mus musculus [6] = assay: Antiinflammatory activity in wild type C57BL/6 mouse model of LPS and D-galactosamine-induced sepsis assessed as decrease in area of immune cells in lungs at 50 to 200 ug, ip administered 2 hrs after LPS and D-galactosamine administration and measured after 10 hrs of post LPS administration by H and E staining based imaging analysis; format: functional, organism-based; settings: dose 50-200 µg, time 8.0 hrs
Mus musculus [7] = assay: Antiinflammatory activity in wild type C57BL/6 mouse model of LPS and D-galactosamine-induced sepsis assessed as decrease in serum TNF-alpha level at 50 to 200 ug, ip administered 2 hrs after LPS and D-galactosamine administration and measured after 10 hrs of post LPS administration by ELISA; format: functional, organism-based; settings: dose 50-200 µg, time 8.0 hrs
Mus musculus [8] = assay: Antiinflammatory activity in wild type C57BL/6 mouse model of LPS and D-galactosamine-induced sepsis assessed as decrease in serum IL-6 level at 50 to 200 ug, ip administered 2 hrs after LPS and D-galactosamine administration and measured after 10 hrs of post LPS administration by ELISA; format: functional, organism-based; settings: dose 50-200 µg, time 8.0 hrs
Mus musculus [9] = assay: Antiinflammatory activity in wild type C57BL/6 mouse model of LPS and D-galactosamine-induced sepsis assessed as decrease in serum IL-1beta level at 50 to 200 ug, ip administered 2 hrs after LPS and D-galactosamine administration and measured after 10 hrs of post LPS administration by ELISA; format: functional, organism-based; settings: dose 50-200 µg, time 8.0 hrs
BMDM [10] = assay: Antiinflammatory activity in LPS-induced sepsis C57BL/6 mouse BMDM cells assessed as reduction in IL-6 mRNA expression at 1 uM treated 1 hr before LPS stimulation and measured after 2 and 6 hrs by qRT-PCR analysis; format: functional, cell-based; settings: time 2-6 hrs
BMDM [11] = assay: Antiinflammatory activity in LPS-induced sepsis C57BL/6 mouse BMDM cells assessed as reduction in IL-1beta mRNA expression at 1 uM treated 1 hr before LPS stimulation and measured after 2 and 6 hrs by qRT-PCR analysis; format: functional, cell-based; settings: time 2-6 hrs
BMDM [12] = assay: Antiinflammatory activity in LPS-induced sepsis C57BL/6 mouse BMDM cells assessed as reduction in TNF-alpha mRNA expression at 1 uM treated 1 hr before LPS stimulation and measured after 2 and 6 hrs by qRT-PCR analysis; format: functional, cell-based; settings: time 2-6 hrs
BMDM [13] = assay: Antiinflammatory activity in LPS-induced sepsis C57BL/6 mouse BMDM cells assessed as reduction in IL-6 secretion at 1 uM treated 1 hr before LPS stimulation and measured after 12 and 24 hrs by ELISA; format: functional, cell-based; settings: time 12-24 hrs
BMDM [14] = assay: Antiinflammatory activity in LPS-induced sepsis C57BL/6 mouse BMDM cells assessed as reduction in IL-1beta secretion at 1 uM treated 1 hr before LPS stimulation and measured after 12 and 24 hrs by ELISA; format: functional, cell-based; settings: time 12-24 hrs
BMDM [15] = assay: Antiinflammatory activity in LPS-induced sepsis C57BL/6 mouse BMDM cells assessed as reduction in TNF-alpha secretion at 1 uM treated 1 hr before LPS stimulation and measured after 12 and 24 hrs by ELISA; format: functional, cell-based; settings: time 12-24 hrs
BMDM [16] = assay: Antiinflammatory activity in CpG-induced sepsis C57BL/6 mouse BMDM cells assessed as reduction in IL-6 mRNA expression at 1 uM treated 1 hr before CpG stimulation by qRT-PCR analysis; format: functional, cell-based
BMDM [17] = assay: Antiinflammatory activity in CpG-induced sepsis C57BL/6 mouse BMDM cells assessed as reduction in IL-1beta mRNA expression at 1 uM treated 1 hr before CpG stimulation by qRT-PCR analysis; format: functional, cell-based
BMDM [18] = assay: Antiinflammatory activity in CpG-induced sepsis C57BL/6 mouse BMDM cells assessed as reduction in TNF-alpha mRNA expression at 1 uM treated 1 hr before CpG stimulation by qRT-PCR analysis; format: functional, cell-based
BMDM [19] = assay: Antiinflammatory activity in CpG-induced sepsis C57BL/6 mouse BMDM cells assessed as reduction in IL-6 secretion at 1 uM treated 1 hr before CpG stimulation and measured after 12 and 24 hrs by ELISA; format: functional, cell-based; settings: time 12-24 hrs
BMDM [20] = assay: Antiinflammatory activity in CpG-induced sepsis C57BL/6 mouse BMDM cells assessed as reduction in IL-1beta secretion at 1 uM treated 1 hr before CpG stimulation and measured after 12 and 24 hrs by ELISA; format: functional, cell-based; settings: time 12-24 hrs
BMDM [21] = assay: Antiinflammatory activity in CpG-induced sepsis C57BL/6 mouse BMDM cells assessed as reduction in TNF-alpha secretion at 1 uM treated 1 hr before CpG stimulation and measured after 12 and 24 hrs by ELISA; format: functional, cell-based; settings: time 12-24 hrs
BMDM [22] = assay: Induction of IL-4-induced polarization of C57BL/6 mouse BMDM cells to M2 assessed as Arg mRNA expression at 1 uM pretreated for 1 hr by qRT-PCR analysis; format: functional, cell-based
BMDM [23] = assay: Induction of IL-4-induced polarization of C57BL/6 mouse BMDM cells to M2 assessed as Mrc mRNA expression at 1 uM pretreated for 1 hr by qRT-PCR analysis; format: functional, cell-based
BMDM [24] = assay: Inhibition of JNK signalling in LPS-induced sepsis wild type C57BL/6 mouse BMDM cells assessed as reduction in AP-1 expression at 1 uM pretreated for 1 hr by Western blot assay; format: cell-based
BMDM [25] = assay: Inhibition of JNK signalling in LPS-induced sepsis wild type C57BL/6 mouse BMDM cells assessed as reduction in NF-kappaB expression at 1 uM pretreated for 1 hr by Western blot assay; format: cell-based
BMDM [26] = assay: Inhibition of JNK signalling in LPS-induced sepsis wild type C57BL/6 mouse BMDM cells assessed as reduction in JNK-2 phosphorylation at 1 uM pretreated for 1 hr by Western blot assay; format: cell-based
BMDM [27] = assay: Inhibition of JNK signalling in LPS-induced sepsis wild type C57BL/6 mouse BMDM cells assessed as reduction in p38 phosphorylation at 1 uM pretreated for 1 hr by Western blot assay; format: cell-based
BMDM [28] = assay: Inhibition of JNK signalling in LPS-induced sepsis wild type C57BL/6 mouse BMDM cells assessed as reduction in IkappaBalpha phosphorylation at 1 uM pretreated for 1 hr by Western blot assay; format: cell-based
BMDM [29] = assay: Inhibition of JNK signalling in LPS-induced sepsis wild type C57BL/6 mouse BMDM cells assessed as reduction in IKKbeta phosphorylation at 1 uM pretreated for 1 hr by Western blot assay; format: cell-based
BMDM [30] = assay: Antiinflammatory activity in CpG-induced sepsis C57BL/6 mouse BMDM cells harboring JNK assessed as reduction in IL-6 mRNA expression at 1 uM pretreated for 1 hr by qRT-PCR analysis; format: functional, cell-based
BMDM [31] = assay: Antiinflammatory activity in CpG-induced sepsis C57BL/6 mouse BMDM cells harboring JNK assessed as reduction in TNF mRNA expression at 1 uM pretreated for 1 hr by qRT-PCR analysis; format: functional, cell-based
BMDM [32] = assay: Antiinflammatory activity in CpG-induced sepsis C57BL/6 mouse BMDM cells harboring JNK assessed as reduction in Nos2 mRNA expression at 1 uM pretreated for 1 hr by qRT-PCR analysis; format: functional, cell-based

[Na+].[O-]/N=C1/c2ccccc2-c2nc3ccccc3nc21
inactive: Activity (BMDM [22]) | Activity (BMDM [23]) | inhibition (BMDM [25])
18.8%: Activity (Mus musculus [4])
17.2%: Activity (Mus musculus [2])
9.2%: Activity (Mus musculus [3])
8.6%: Activity (Mus musculus [5])
active: Activity (Mus musculus [1]) | Activity (Mus musculus [6]) | Activity (Mus musculus [7]) | Activity (Mus musculus [8]) | Activity (Mus musculus [9]) | Activity (BMDM [10]) | Activity (BMDM [11]) | Activity (BMDM [12]) | Activity (BMDM [13]) | Activity (BMDM [14]) | Activity (BMDM [15]) | Activity (BMDM [16]) | Activity (BMDM [17]) | Activity (BMDM [18]) | Activity (BMDM [19]) | Activity (BMDM [20]) | Activity (BMDM [21]) | inhibition (BMDM [24]) | inhibition (BMDM [26]) | inhibition (BMDM [27]) | inhibition (BMDM [28]) | inhibition (BMDM [29]) | Activity (BMDM [30]) | Activity (BMDM [31]) | Activity (BMDM [32])
